Reference: ChEMBL document CHEMBL4507329, “Data for DCP probe BTZO-1” (2021)

Tests used:
[1] = tested on: Tyrosine-protein kinase ABL1 (Homo sapiens), P00519 [Q252H]; settings: Compound concentration 1000.0 nM
[2] = tested on: Tyrosine-protein kinase ABL1 (Homo sapiens), P00519 [T315I]; settings: Compound concentration 1000.0 nM
[3] = target: NUAK family SNF1-like kinase 1 (Homo sapiens) (UniProt O60285); settings: Compound concentration 1000.0 nM
[4] = target: Tyrosine-protein kinase Blk (Homo sapiens) (UniProt P51451); settings: Compound concentration 1000.0 nM
[5] = target: Calcium/calmodulin-dependent protein kinase type 1D (Homo sapiens) (UniProt Q8IU85); settings: Compound concentration 1000.0 nM
[6] = target: Calcium/calmodulin-dependent protein kinase type IV (Homo sapiens) (UniProt Q16566); settings: Compound concentration 1000.0 nM
Sequence of Calcium/calmodulin-dependent protein kinase type IV (Homo sapiens) (Q16566 whole entry): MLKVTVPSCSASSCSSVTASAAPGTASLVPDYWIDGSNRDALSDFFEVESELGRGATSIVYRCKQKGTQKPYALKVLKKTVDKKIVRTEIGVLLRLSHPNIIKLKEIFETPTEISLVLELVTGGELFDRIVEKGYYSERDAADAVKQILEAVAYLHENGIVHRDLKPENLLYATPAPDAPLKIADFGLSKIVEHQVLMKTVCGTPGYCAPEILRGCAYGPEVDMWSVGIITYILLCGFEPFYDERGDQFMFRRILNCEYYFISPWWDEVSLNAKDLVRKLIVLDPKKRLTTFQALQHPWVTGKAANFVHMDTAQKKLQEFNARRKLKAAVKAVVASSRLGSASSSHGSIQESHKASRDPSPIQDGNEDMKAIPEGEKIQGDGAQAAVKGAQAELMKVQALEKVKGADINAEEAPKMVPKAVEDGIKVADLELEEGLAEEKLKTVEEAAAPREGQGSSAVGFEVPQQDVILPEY

[7] = target: Serine/threonine-protein kinase Chk2 (Homo sapiens) (UniProt O96017); settings: Compound concentration 1000.0 nM
[8] = target: Macrophage colony-stimulating factor 1 receptor (Homo sapiens) (UniProt P07333); settings: Compound concentration 1000.0 nM
[9] = target: Serine/threonine-protein kinase DCLK1 (Homo sapiens) (UniProt O15075); settings: Compound concentration 1000.0 nM
[10] = tested on: Epidermal growth factor receptor (Homo sapiens), P00533 [T790M]; settings: Compound concentration 1000.0 nM
[11] = target: Mitogen-activated protein kinase 15 (Homo sapiens) (UniProt Q8TD08); settings: Compound concentration 1000.0 nM
[12] = tested on: Receptor-type tyrosine-protein kinase FLT3 (Homo sapiens), P36888 [N841I]; settings: Compound concentration 1000.0 nM
[13] = tested on: eIF-2-alpha kinase GCN2 (Homo sapiens), Q9P2K8 [S808G]; settings: Compound concentration 1000.0 nM
[14] = target: G protein-coupled receptor kinase 3 (Homo sapiens) (UniProt P35626); settings: Compound concentration 1000.0 nM
[15] = target: Mitogen-activated protein kinase kinase kinase kinase 1 (Homo sapiens) (UniProt Q92918); settings: Compound concentration 1000.0 nM
[16] = target: Interleukin-1 receptor-associated kinase 4 (Homo sapiens) (UniProt Q9NWZ3); settings: Compound concentration 1000.0 nM
[17] = target: Tyrosine-protein kinase ITK/TSK (Homo sapiens) (UniProt Q08881); settings: Compound concentration 1000.0 nM
[18] = target: Mast/stem cell growth factor receptor Kit (Homo sapiens) (UniProt P10721); settings: Compound concentration 1000.0 nM
[19] = tested on: Mast/stem cell growth factor receptor Kit (Homo sapiens), P10721 [A829P]; settings: Compound concentration 1000.0 nM
[20] = tested on: Mast/stem cell growth factor receptor Kit (Homo sapiens), P10721 [D816H]; settings: Compound concentration 1000.0 nM
[21] = target: Dual specificity mitogen-activated protein kinase kinase 5 (Homo sapiens) (UniProt Q13163); settings: Compound concentration 1000.0 nM
Sequence of Dual specificity mitogen-activated protein kinase kinase 5 (Homo sapiens) (Q13163 whole entry): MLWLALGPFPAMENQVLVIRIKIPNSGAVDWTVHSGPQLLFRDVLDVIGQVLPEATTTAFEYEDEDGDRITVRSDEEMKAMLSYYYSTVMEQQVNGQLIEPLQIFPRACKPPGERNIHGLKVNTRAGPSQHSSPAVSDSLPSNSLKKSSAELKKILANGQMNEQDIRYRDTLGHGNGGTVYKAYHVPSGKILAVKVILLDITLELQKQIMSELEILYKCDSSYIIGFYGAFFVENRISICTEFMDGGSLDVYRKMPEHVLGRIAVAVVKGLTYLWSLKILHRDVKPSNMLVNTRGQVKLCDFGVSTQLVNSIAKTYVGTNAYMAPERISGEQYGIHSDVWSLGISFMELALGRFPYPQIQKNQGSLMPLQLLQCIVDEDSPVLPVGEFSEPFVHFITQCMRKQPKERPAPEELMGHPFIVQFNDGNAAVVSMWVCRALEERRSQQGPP

[22] = target: Serine/threonine-protein kinase MRCK beta (Homo sapiens) (UniProt Q9Y5S2); settings: Compound concentration 1000.0 nM
[23] = target: Serine/threonine-protein kinase 4 (Homo sapiens) (UniProt Q13043); settings: Compound concentration 1000.0 nM
[24] = target: Muscle, skeletal receptor tyrosine-protein kinase (Homo sapiens) (UniProt O15146); settings: Compound concentration 1000.0 nM
[25] = target: Myosin light chain kinase 2, skeletal/cardiac muscle (Homo sapiens) (UniProt Q9H1R3); settings: Compound concentration 1000.0 nM
[26] = target: Serine/threonine-protein kinase 38-like (Homo sapiens) (UniProt Q9Y2H1); settings: Compound concentration 1000.0 nM
[27] = target: Serine/threonine-protein kinase PAK 2 (Homo sapiens) (UniProt Q13177); settings: Compound concentration 1000.0 nM
[28] = tested on: Phosphatidylinositol 4,5-bisphosphate 3-kinase catalytic subunit alpha isoform (Homo sapiens), P42336 [M1043I]; settings: Compound concentration 1000.0 nM
Sequence of Phosphatidylinositol 4,5-bisphosphate 3-kinase catalytic subunit alpha isoform (Homo sapiens), P42336 [M1043I] (P42336 whole entry M1043I, canonical isoform): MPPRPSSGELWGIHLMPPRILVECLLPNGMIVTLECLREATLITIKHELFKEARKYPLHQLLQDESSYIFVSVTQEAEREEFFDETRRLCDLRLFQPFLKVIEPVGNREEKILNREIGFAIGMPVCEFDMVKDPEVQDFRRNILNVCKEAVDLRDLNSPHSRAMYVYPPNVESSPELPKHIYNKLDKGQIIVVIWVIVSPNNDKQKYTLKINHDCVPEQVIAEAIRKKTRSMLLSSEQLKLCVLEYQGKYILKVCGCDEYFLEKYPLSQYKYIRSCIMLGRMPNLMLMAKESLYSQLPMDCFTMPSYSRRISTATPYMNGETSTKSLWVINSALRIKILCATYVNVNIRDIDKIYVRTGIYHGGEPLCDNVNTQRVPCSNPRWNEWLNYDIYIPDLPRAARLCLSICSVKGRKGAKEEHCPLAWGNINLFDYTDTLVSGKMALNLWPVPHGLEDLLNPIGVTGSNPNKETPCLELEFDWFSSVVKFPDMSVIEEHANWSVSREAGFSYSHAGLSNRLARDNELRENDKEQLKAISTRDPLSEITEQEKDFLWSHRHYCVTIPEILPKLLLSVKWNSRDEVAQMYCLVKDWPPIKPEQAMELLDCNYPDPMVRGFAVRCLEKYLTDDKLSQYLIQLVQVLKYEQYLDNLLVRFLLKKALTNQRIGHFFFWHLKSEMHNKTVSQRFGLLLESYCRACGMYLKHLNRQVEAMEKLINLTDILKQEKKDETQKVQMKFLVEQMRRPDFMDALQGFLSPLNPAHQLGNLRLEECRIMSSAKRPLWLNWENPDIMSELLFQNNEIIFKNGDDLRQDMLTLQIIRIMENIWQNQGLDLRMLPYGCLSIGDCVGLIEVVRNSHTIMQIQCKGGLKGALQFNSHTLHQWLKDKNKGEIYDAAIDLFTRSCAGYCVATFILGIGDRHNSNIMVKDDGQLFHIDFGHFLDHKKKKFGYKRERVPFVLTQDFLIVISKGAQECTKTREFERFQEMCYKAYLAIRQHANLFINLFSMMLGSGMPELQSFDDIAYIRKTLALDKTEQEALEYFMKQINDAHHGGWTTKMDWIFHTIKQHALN

[29] = target: Serine/threonine-protein kinase PLK1 (Homo sapiens) (UniProt P53350); settings: Compound concentration 1000.0 nM
Sequence of Serine/threonine-protein kinase PLK1 (Homo sapiens) (P53350 whole entry): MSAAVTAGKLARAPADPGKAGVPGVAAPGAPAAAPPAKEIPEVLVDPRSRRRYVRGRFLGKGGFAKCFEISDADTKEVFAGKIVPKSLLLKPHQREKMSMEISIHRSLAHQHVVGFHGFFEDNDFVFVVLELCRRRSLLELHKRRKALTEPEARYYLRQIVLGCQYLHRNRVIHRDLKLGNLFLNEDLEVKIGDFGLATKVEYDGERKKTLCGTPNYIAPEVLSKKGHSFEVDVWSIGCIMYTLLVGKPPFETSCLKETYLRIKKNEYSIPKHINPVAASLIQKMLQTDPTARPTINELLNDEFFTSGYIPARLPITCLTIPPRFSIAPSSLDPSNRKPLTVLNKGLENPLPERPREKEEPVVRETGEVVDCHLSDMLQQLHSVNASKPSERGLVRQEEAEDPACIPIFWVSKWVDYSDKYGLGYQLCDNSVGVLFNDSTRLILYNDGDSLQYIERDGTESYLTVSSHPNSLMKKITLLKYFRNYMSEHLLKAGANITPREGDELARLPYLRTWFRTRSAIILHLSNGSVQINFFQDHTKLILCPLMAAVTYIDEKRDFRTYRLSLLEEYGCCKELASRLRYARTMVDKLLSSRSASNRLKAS

[30] = target: Protein kinase C eta type (Homo sapiens) (UniProt P24723); settings: Compound concentration 1000.0 nM
[31] = target: Serine/threonine-protein kinase D1 (Homo sapiens) (UniProt Q15139); settings: Compound concentration 1000.0 nM
[32] = target: Serine/threonine-protein kinase SIK3 (Homo sapiens) (UniProt Q9Y2K2); settings: Compound concentration 1000.0 nM
[33] = target: Serine/threonine-protein kinase RIO2 (Homo sapiens) (UniProt Q9BVS4); settings: Compound concentration 1000.0 nM
Sequence of Serine/threonine-protein kinase RIO2 (Homo sapiens) (Q9BVS4 whole entry, looked up): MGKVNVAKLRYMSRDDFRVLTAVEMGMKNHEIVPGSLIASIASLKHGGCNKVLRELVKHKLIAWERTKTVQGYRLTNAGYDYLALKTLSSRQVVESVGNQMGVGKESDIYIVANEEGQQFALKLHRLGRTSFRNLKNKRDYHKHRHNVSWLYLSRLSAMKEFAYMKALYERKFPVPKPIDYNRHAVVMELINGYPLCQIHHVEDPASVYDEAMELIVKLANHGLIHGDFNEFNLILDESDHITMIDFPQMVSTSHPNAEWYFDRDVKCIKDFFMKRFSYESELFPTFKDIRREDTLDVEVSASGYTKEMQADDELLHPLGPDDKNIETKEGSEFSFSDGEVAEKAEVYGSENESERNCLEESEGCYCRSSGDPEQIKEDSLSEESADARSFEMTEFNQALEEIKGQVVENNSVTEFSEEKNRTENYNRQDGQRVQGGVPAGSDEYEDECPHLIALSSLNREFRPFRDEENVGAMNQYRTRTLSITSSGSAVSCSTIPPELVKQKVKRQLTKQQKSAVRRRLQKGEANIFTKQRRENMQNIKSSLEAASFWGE

[34] = target: Ribosomal protein S6 kinase alpha-3 (Homo sapiens) (UniProt P51812); settings: Compound concentration 1000.0 nM
[35] = target: Serine/threonine-protein kinase Sgk1 (Homo sapiens) (UniProt O00141); settings: Compound concentration 1000.0 nM
[36] = target: Serine/threonine-protein kinase SIK1 (Homo sapiens) (UniProt P57059); settings: Compound concentration 1000.0 nM
[37] = target: Serine/threonine-protein kinase TBK1 (Homo sapiens) (UniProt Q9UHD2); settings: Compound concentration 1000.0 nM
[38] = target: Dual specificity protein kinase TTK (Homo sapiens) (UniProt P33981); settings: Compound concentration 1000.0 nM
[39] = target: Non-receptor tyrosine-protein kinase TYK2 (Homo sapiens) (UniProt P29597); settings: Compound concentration 1000.0 nM
Sequence of Non-receptor tyrosine-protein kinase TYK2 (Homo sapiens) (P29597 whole entry): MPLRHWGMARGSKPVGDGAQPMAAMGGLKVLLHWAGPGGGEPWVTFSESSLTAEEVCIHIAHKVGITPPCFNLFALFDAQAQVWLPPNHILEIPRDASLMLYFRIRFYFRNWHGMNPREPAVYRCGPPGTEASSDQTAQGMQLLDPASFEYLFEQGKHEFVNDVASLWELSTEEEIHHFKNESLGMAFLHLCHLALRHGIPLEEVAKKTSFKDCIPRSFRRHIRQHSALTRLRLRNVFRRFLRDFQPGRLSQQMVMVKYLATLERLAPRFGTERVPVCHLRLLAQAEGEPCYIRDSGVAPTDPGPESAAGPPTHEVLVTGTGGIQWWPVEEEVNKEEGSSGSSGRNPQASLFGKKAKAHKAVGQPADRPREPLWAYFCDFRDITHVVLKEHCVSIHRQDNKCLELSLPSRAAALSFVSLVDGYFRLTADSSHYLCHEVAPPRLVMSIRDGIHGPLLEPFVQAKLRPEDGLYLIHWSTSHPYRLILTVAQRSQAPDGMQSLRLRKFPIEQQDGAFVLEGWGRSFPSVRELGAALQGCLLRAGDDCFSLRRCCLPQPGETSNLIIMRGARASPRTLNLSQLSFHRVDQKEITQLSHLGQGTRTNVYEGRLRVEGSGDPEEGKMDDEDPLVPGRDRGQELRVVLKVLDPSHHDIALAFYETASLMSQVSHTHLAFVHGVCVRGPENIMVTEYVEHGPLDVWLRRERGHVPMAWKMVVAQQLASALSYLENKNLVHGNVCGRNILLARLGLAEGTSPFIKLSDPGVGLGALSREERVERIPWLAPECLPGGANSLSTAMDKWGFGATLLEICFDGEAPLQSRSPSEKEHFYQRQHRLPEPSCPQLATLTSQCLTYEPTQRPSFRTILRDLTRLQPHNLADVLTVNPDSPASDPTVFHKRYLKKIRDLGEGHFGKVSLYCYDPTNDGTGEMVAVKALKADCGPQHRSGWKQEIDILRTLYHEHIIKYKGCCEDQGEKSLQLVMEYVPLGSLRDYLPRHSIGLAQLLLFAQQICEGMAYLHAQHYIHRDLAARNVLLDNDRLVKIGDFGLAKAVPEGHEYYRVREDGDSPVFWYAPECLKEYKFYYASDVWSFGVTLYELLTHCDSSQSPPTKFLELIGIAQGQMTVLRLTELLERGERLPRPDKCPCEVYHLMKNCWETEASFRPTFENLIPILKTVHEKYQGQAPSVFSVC

[40] = target: Non-receptor tyrosine-protein kinase TYK2 (Homo sapiens) (UniProt P29597); settings: Compound concentration 1000.0 nM; remark: listed apart in the source
[41] = target: Tyrosine-protein kinase receptor TYRO3 (Homo sapiens) (UniProt Q06418); settings: Compound concentration 1000.0 nM
[42] = target: Wee1-like protein kinase (Homo sapiens) (UniProt P30291); settings: Compound concentration 1000.0 nM
[43] = target: 5-hydroxytryptamine receptor 1E (Homo sapiens) (UniProt P28566); settings: Compound concentration 10.0 uM
Sequence of 5-hydroxytryptamine receptor 1E (Homo sapiens) (P28566 whole entry): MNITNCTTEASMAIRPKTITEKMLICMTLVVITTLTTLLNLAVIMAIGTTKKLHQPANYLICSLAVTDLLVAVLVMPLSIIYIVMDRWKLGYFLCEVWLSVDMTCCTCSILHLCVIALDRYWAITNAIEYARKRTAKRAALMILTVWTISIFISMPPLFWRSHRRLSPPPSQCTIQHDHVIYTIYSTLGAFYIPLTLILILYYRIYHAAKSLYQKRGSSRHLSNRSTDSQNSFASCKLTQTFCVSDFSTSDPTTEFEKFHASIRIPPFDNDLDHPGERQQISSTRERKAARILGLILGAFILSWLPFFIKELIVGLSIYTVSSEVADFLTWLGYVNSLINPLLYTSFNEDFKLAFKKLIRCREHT

[44] = target: D(1A) dopamine receptor (Homo sapiens) (UniProt P21728); settings: Compound concentration 10.0 uM
[45] = target: Alpha-2A adrenergic receptor (Homo sapiens) (UniProt P08913); settings: Compound concentration 10.0 uM

## O=C1NC(c2ccccn2)Sc2ccccc21 (stereo not given) [BTZO-4]
[1]
  residual activity: 75%
[2]
  residual activity: 93%
[3]
  residual activity: 95%
[4]
  residual activity: 77%
[5]
  residual activity: 82%
[6]
  residual activity: 72%
[7]
  residual activity: 100%
[8]
  residual activity: 91%
[9]
  residual activity: 77%
[10]
  residual activity: 96%
[11]
  residual activity: 100%
[12]
  residual activity: 60%
[13]
  residual activity: 42%
[14]
  residual activity: 42%
[15]
  residual activity: 95%
[16]
  residual activity: 100%
[17]
  residual activity: 77%
[18]
  residual activity: 89%
[19]
  residual activity: 98%
[20]
  residual activity: 79%
[21]
  residual activity: 87%
[22]
  residual activity: 100%
[23]
  residual activity: 81%
[24]
  residual activity: 90%
[25]
  residual activity: 100%
[26]
  residual activity: 58%
[27]
  residual activity: 100%
[28]
  residual activity: 74%
[29]
  residual activity: 100%
[30]
  residual activity: 100%
[31]
  residual activity: 100%
[32]
  residual activity: 70%
[33]
  residual activity: 83%
[34]
  residual activity: 72%
[35]
  residual activity: 87%
[36]
  residual activity: 88%
[37]
  residual activity: 87%
[38]
  residual activity: 91%
[39]
  residual activity: 88%
[40]
  residual activity: 86%
[41]
  residual activity: 76%
[42]
  residual activity: 100%
[43]
  inhibition: -0.383%
[44]
  inhibition: 7.77%
[45]
  inhibition: 12.7%

## O=c1nc(-c2ccccn2)sc2ccccc12 [BTZO-1]
[1]
  residual activity: 96%
[2]
  residual activity: 100%
[3]
  residual activity: 100%
[4]
  residual activity: 88%
[5]
  residual activity: 90%
[6]
  residual activity: 97%
[7]
  residual activity: 100%
[8]
  residual activity: 95%
[9]
  residual activity: 90%
[10]
  residual activity: 100%
[11]
  residual activity: 100%
[12]
  residual activity: 74%
[13]
  residual activity: 47%
[14]
  residual activity: 51%
[15]
  residual activity: 100%
[16]
  residual activity: 100%
[17]
  residual activity: 82%
[18]
  residual activity: 79%
[19]
  residual activity: 100%
[20]
  residual activity: 92%
[21]
  residual activity: 79%
[22]
  residual activity: 100%
[23]
  residual activity: 75%
[24]
  residual activity: 100%
[25]
  residual activity: 100%
[26]
  residual activity: 66%
[27]
  residual activity: 100%
[28]
  residual activity: 100%
[29]
  residual activity: 100%
[30]
  residual activity: 98%
[31]
  residual activity: 100%
[32]
  residual activity: 85%
[33]
  residual activity: 94%
[34]
  residual activity: 71%
[35]
  residual activity: 99%
[36]
  residual activity: 95%
[37]
  residual activity: 91%
[38]
  residual activity: 100%
[39]
  residual activity: 100%
[40]
  residual activity: 98%
[41]
  residual activity: 80%
[42]
  residual activity: 100%
[43]
  inhibition: -1.13%
[44]
  inhibition: 3.24%
[45]
  inhibition: 0.132%
